Data from publication PMC7932521, “2-aminobenzimidazoles for leishmaniasis: From initial hit discovery to in vivo profiling” (PLoS Neglected Tropical Diseases, 2021).
Like-named read-outs stand apart in the source and are kept apart here.

Columns and labels:
[1] = test system: PMM (Primary Mouse Macrophages); assay: Cytotoxicity on primary peritoneal mouse macrophages; format: cell-based; conditions: read-out: PMM IC50
Method in brief: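 Host cells were peritoneal macrophages from Swiss mice, harvested after 2 days of starch stimulation and kept in RPMI-1640 with 5% FCS at 37 °C, 5% CO2. Compounds were tested in 4-fold dilutions from 64 μM, with final DMSO below 1%.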

[2] = Parallel artificial membrane permeability assay (PAMPA); format: in vitro ADME; conditions: S1 Data; for Papp at 5 h, 10 μM: PAMPA, read-out: PAMPA Pe
Method in brief: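 Compounds at 10μM final in PBS pH 6.5 (donor) against PBS pH 7.4 (acceptor) across lipid-coated membranes, incubated 5 h at 37°C. Donor, acceptor and T0 levels measured by LC-MS/MS to derive effective permeability (Pe); n = 3.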

MRC-5 cytotoxicity = format: cell-based; conditions: human, MRC-5 cells; S1 Data
HEPG2 cytotoxicity = format: cell-based; conditions: human, HepG2 cells; S1 Data
Text: Supplement pntd.0009196.s001.xlsx, sheet "Complete Dataset" | column: HEPG2 CC50 (uM)

[3] = Experimental distribution coefficient (eLogD); format: physicochemical; conditions: for chromatographic logD: reverse stationary phase HPLC column (Ascentis RP-Amide)
Method in brief: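 Lipophilicity derived from retention time on an Ascentis RP-Amide reverse-phase column by LC-MS/MS, compounds at 1.0 μg/mL with internal standard; mobile phases 5% methanol in 10mM ammonium acetate pH 7.4 and 100% methanol. LogD calculated from a linear calibration of eight standards' retention times against known LogD.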

[4] = Mouse liver microsomal stability; format: in vitro ADME; conditions: for microsomal CLint at 0.5 μM: CD1, mouse, liver microsomes
Method in brief: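 Test compound at 0.5 μM incubated with 0.25 mg/mL human (200-donor pool) or CD1 mouse liver microsomes, pH 7.4, 37°C, started with […]; sampled 0–30 min. LC-MS/MS quantitation against internal standard; t1/2 and Clint (μL/min/mg) from non-linear regression of % remaining versus time.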

[5] = test system: Leishmania infantum MHOM/MA(BE)/67/ITMAP263 amastigotes; assay: L. infantum intracellular amastigote assay in PMM; format: cell-based; conditions: for SI: selectivity index (CC50 / IC50): CC50 / L. infantum IC50
Method in brief: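 Mouse peritoneal macrophages infected with hamster spleen-derived amastigotes (2 h, 37°C), then exposed to 4-fold dilutions from 64 μM (DMSO <1%) for 5 days at 37°C, 5% CO2. Burden scored microscopically after Giemsa staining as percent reduction vs untreated wells; IC50 as geometric mean of ≥2 experiments.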

[6] = test system: L. major MHOM/IL/81/Friedlin; assay: VL/CL panel, intracellular amastigotes; format: cell-based; conditions: Leishmania major; average; read-out: IC-50 L. major MHOM/IL/81/Friedlin
Protocol: (§1) For the antileishmania in vitro assays, 3×10^4 PMM/well were seeded in 96-well plates. After 24h, 5×10^5 amastigotes/well were added and incubated for 2h at 37°C. Next, the compounds in 4-fold serial dilutions were added and the plates were further incubated for 5 days (37°C, 5% CO2). Parasite burdens were assessed using an inverted microscope after Giemsa staining. The results were expressed as percent reduction in parasite burdens compared to negative control wells (100% growth) and IC50 values were determined. Values represent the geometric mean of at least two independent experiments. Miltefosine was used as the positive control in all plates.

[7] = test system: L. panamensis MHOM/PA/71/LS94; assay: VL/CL panel, intracellular amastigotes; format: cell-based; conditions: Leishmania panamensis; average; read-out: IC-50 L. panamensis MHOM/PA/71/LS94
Protocol: as §1

[8] = test system: L. major MHOM/SA/85/JISH118; assay: VL/CL panel, intracellular amastigotes; format: cell-based; conditions: Leishmania major; average; read-out: IC-50 L. major MHOM/SA/85/JISH118
Protocol: as §1

[9] = test system: L. guyanensis MHOM/PE/02/PER 054/0; assay: VL/CL panel, intracellular amastigotes; format: cell-based; conditions: Leishmania guyanensis; average; read-out: IC-50 L. guyanensis MHOM/PE/02/PER 054/0
Protocol: as §1

[10] = test system: L. infantum LEM3323-cl4 PMM; assay: VL/CL panel, intracellular amastigotes; format: cell-based; conditions: Leishmania infantum, read-out: IC-50 L. infantum LEM3323-cl4 PMM
Protocol: as §1

[11] = test system: L. donovani MHOM/ET/2007/LLM-1600; assay: VL/CL panel, intracellular amastigotes; format: cell-based; conditions: Leishmania donovani; average; read-out: IC-50 L. donovani MHOM/ET/2007/LLM-1600
Protocol: as §1

[12] = test system: L. donovani MHOM/NP/03/BPK275/0-cl18; assay: VL/CL panel, intracellular amastigotes; format: cell-based; conditions: Leishmania donovani; average; read-out: IC-50 L. donovani MHOM/NP/03/BPK275/0-cl18
Protocol: as §1

[13] = test system: L. donovani MHOM/ NP/2003/ BPK282/0-cl4; assay: VL/CL panel, intracellular amastigotes; format: cell-based; conditions: Leishmania donovani; average; read-out: IC-50 L. donovani MHOM/ NP/2003/ BPK282/0-cl4
Protocol: as §1

[14] = test system: L. infantum MHOM/BR/2007/WC (L3015); assay: VL/CL panel, intracellular amastigotes; format: cell-based; conditions: Leishmania infantum; average; read-out: IC-50 L. infantum MHOM/BR/2007/WC (L3015)
Protocol: as §1

[15] = test system: L. infantum MHOM/FR/96/LEM3323-cl4; assay: VL/CL panel, intracellular amastigotes; format: cell-based; conditions: Leishmania infantum; average; read-out: IC-50 L. infantum MHOM/FR/96/LEM3323-cl4
Protocol: as §1

[16] = test system: L. infantum MHOM/ES/2016/LLM-2346; assay: VL/CL panel, intracellular amastigotes; format: cell-based; conditions: Leishmania infantum; average; read-out: IC-50 L. infantum MHOM/ES/2016/LLM-2346
Protocol: as §1

[17] = test system: L. braziliensis MHOM/BR/94/H3227; assay: VL/CL panel, intracellular amastigotes; format: cell-based; conditions: Leishmania braziliensis; average; read-out: IC-50 L. braziliensis MHOM/BR/94/H3227
Protocol: as §1

[18] = test system: L. tropica MHOM/AF/2015/HTD7; assay: VL/CL panel, intracellular amastigotes; format: cell-based; conditions: Leishmania tropica; average; read-out: IC-50 L. tropica MHOM/AF/2015/HTD7
Protocol: as §1

[19] = test system: L. infantum LEM3323-cl4 MIL; assay: VL/CL panel, intracellular amastigotes; format: cell-based; conditions: Leishmania infantum, read-out: IC-50 L. infantum LEM3323-cl4 MIL
Protocol: as §1

[20] = test system: L. infantum (MHOM/BR/2005/NLC) strain expressing luciferase; format: in vivo, Leishmania infantum; conditions: 40 mg/kg/day oral, 5 days, and washout
Protocol: Groups of female BALB/c mice (n = 5) were infected with 10^8 stationary phase promastigotes of L. infantum chagasi-LUC in a final volume of 100 μL by the intraperitoneal route. At day 14 post-infection, groups were orally treated for 5 days with either drug vehicle only (10% ethanol, 40% PEG400 and 0.4% Tween80 in saline buffer—pH adjusted to 9), miltefosine (40 mg/kg QD) or with compounds 29 and 39 (25 mg/kg QD). Light emission in the ventral abdominal cavity of infected animals was recorded by bioimaging (IVIS Spectrum, Caliper Life Sciences) on 14, 19- and 24-days post-infection. Before imaging, mice received 75 mg/kg VivoGlo™ Luciferin (Promega Corporation) (i.p.) and were anesthetized in a 2% isoflurane atmosphere (Cristália). Animals were then transferred to the imaging chamber and kept in a 2% isoflurane atmosphere. Emitted photons were collected using the high resolution (medium binning) mode. Total photon emission from a defined region of interest (ROI) corresponding to the whole abdominal area was registered. The same ROI was applied to all animals in any given group. Images were acquired 15 min after luciferin injection. Total photon emission from each mouse was quantified with Living Image software version 4.3.1 (Caliper Life Sciences), and results were expressed as the number of photons/s/ROI subtracted from the corresponding ROI in uninfected animals. The detected signal was presented as a pseudocolor image representing light intensity (red = most intense and blue = least intense) and superimposed on the gray scale reference image.

MRC-5 cells = assay: MRC-5 cytotoxicity; format: cell-based; conditions: S1 Data
[21] = pH 7.4, S1 Data, read-out: MLM CLint
[22] = Leishmania infantum, 120 h, intracellular amastigotes in PMM, 5 days, read-out: L. infantum IC50
[23] = Leishmania infantum, S1 Data, read-out: L. infantum IC50

N#Cc1ccc2nc(NC(=O)Cc3ccc(F)cc3F)n(CC(F)(F)F)c2c1 [Compound 24, Fc1cc(F)ccc1CC(Nc2nc(ccc(C#N)c3)c3n2CC(F)(F)F)=O]
IC50 ([1]; Mus musculus, Macrophage): 16 µM | Papp at 5 h, 10 μM [2]: 0.76 ×10⁻⁶ cm/s | CC50 (MRC-5 cytotoxicity): > 64 µM | CC50 (HEPG2 cytotoxicity): > 64 µM | chromatographic logD ([3]; pH 7.4, S1 Data): 3.85 | microsomal CLint at 0.5 μM [4, 21]: 20 µL/min/mg | microsomal CLint at 0.5 μM ([4]; pH 7.4, mouse liver microsome intrinsic clearance, read-out: MLM Clint): 19.6 µL/min/mg | IC50 [5, 22]: 10 µM | IC50 [5, 23]: 10.2 µM

CC(C)(C)Cn1c(NC(=O)c2ccn[nH]2)nc2ccc(C#N)cc21 [Compound 34, O=C(Nc1nc(ccc(C#N)c2)c2n1CC(C)(C)C)c3ccn[nH]3]
IC50 ([1]; Mus musculus, Macrophage): 50.8 µM | Papp at 5 h, 10 μM [2]: 11.1 ×10⁻⁶ cm/s | CC50 (MRC-5 cytotoxicity): > 64 µM | CC50 (HEPG2 cytotoxicity): 16 µM | eLogD ([3]; experimental, pH 7.4): 3.6 | chromatographic logD ([3]; pH 7.4, S1 Data): 3.67 | microsomal CLint at 0.5 μM [4, 21]: 47 µL/min/mg | SI: selectivity index (CC50 / IC50) [5]: 1 | IC50 [5, 22]: 38 µM | IC50 [5, 23]: 38.3 µM

CCCCCCCCCCCCCCCCOP(=O)([O-])OCC[N+](C)(C)C [Miltefosine, reference compound]
IC50 [6]: 11.3 µM | IC50 [7]: 1.81 µM | IC50 [8]: 24.1 µM | IC50 [9]: 8.06 µM | IC50 [10]: 2.69 µM | IC50 [11]: 2.01 µM | IC50 [12]: 2.07 µM | IC50 [13]: 1.81 µM | IC50 [14]: 2.16 µM | IC50 [15]: 2.01 µM | IC50 [16]: 2.07 µM | IC50 [17]: 1 µM | IC50 [18]: 2.16 µM | IC50 [19]: 20.3 µM | parasite load (total ventral bioluminescence) [20]: undetectable levels | IC50 [5, 22]: 11.2 µM | IC50 ([5]; Leishmania infantum, panel sheet, average, read-out: IC-50 L. infantum MHOM/MA/67/ITMAP263): 1.16 µM

O=C(c1cc(nc(NC(=O)Cc2ccc(F)cc2)n3CCC)c3cc1)N4CCCC4 [Compound 13]
IC50 ([1]; S1 Data): > 64 µM | PAMPA Pe [2]: 7.92 10-6 cm/s | CC50 (MRC-5 cells): > 64 µM | eLogD ([3]; S1 Data): 3.99 | eLogD ([3]; experimental, pH 7.4): 4.0 | MLM CLint ([4]; S1 Data): 138 µL/min/mg | SI: selectivity index (CC50 / IC50) [5]: 6 | IC50 ([5]; S1 Data, read-out: L. infantum IC50): 9.79 µM | IC50 ([5]; intracellular amastigotes in PMM, 5 days, read-out: L. infantum IC50): 9.8 µM
